Test results taken from patent publication US20220313780A1, “METHODS AND COMPOSITIONS FOR TREATING INFLAMMATORY CONDITIONS” (THE SCRIPPS RESEARCH INSTITUTE, priority 2019, published 2022).
No end group written: not given here.

Tested on: caspase 1
Test: Caspase 1 activity assay in PMA-differentiated THP1 cells treated with LPS and ATP
Format: cell-based, human
Conditions: for anti-inflammatory activities relative to that of TR47: summary statement on exemplified TR47 fragments and variants
Method: THP1-null (THP1) cells were plated at a final concentration of 1×10^6/mL in 96 well plates and incubated with PMA (0.5 μM) for 3 hours 37° C. in supplemented RPMI. Media was subsequently changed every 24 hours for 3 days. Various subsets of wells were selected and cells were treated for 60 minutes at 37° C. in serum-free RPMI with: (A) APC (4 μg/mL), TR47 (50 μM-2 nM), scrTR47 (50 μM), SFLLRN (50 μM), TFLLRN (50 μM); (B) P3R (50 μM-500 nM), P3K (50 μM); (C) APC (4 or 1 μg/mL), TR47 (8 nM), P3R (500 nM) or TR47+P3R (8 nM and 500 nM, respectively); (D) TR47 (0-128 nM) (●)±P3R (500 nM) (□); (E) P3R (0-500 nM) (●)±TR47 (1 nM) (□). Following DPBS wash, cells were incubated with LPS (1 μg/mL) for 3 hours at 37° C. in serum-free RPMI. After a DPBS wash, cells were incubated with ATP (5 mM) in the presence or absence of 10 μM YVAD (caspase 1 inhibitor) or 2.5 μM ZVAD (pan-caspase inhibitor) for 45 minutes at 37° C., prior to performing the caspase 1 activity assay following manufacturer's directions measuring luminescence (relative luminescent units, RLU). (D & E) Experimental caspase 1 activity was normalized to YVAD (caspase 1 inhibitor) luminescence units. (A-E) Data points represent mean±S.D. of at least 3 independent experiments. *P<0.05 (vs. LPS+ATP); #P<0.05 (vs. LPS+ATP & APC, TR47 or P3R); **P<0.005 (vs. LPS+ATP & TR47+500 nM P3R); n.s. not significant.
THP1 cells were plated at a final concentration of 1×10^6/mL in 96 well plates and incubated with PMA (0.5 μM) for 3 hours 37° C. in supplemented RPMI. Media was subsequently changed every 24 hours for 3 days. Selected wells were treated with APC (4 μg/mL), (A) 50 μM or (B) 2 μM of P3R, P3Rm, P3R 51-65, P3R 51-59, P3R 54-59 or P3R 59-65 for 1 hour, washed with DPBS, and incubated with LPS (1 μg/mL) for 3 hours at 37° C. in serum-free RPMI. Cells were washed with DPBS and incubated with ATP (5 mM) in the presence or absence of 10 μM YVAD (caspase 1 inhibitor; C1i) or 2.5 μM ZVAD (pan-caspase inhibitor; pCi) for 45 minutes at 37° C., prior to performing the caspase 1 activity assay following manufacturer's directions measuring luminescence (relative luminescent units, RLU). (C) Diagram showing the PAR3 sequence, peptide sequences and relative (anti-inflammatory) activity. These include sequences of P3R (SEQ ID NO:4), P3Rm (SEQ ID NO:8), P3R 51-65 (SEQ ID NO:9), P3R 51-59 (SEQ ID NO:10), P3R 54-59 (SEQ ID NO:54) and P3R 59-65 (SEQ ID NO:55).
THP1 cells were plated at a final concentration of 1×10^6/mL in 96 well plates and incubated with PMA (0.5 μM) for 3 hours 37° C. in supplemented RPMI. Media was subsequently changed every 24 hours for 3 days. Selected wells were treated with APC (4 μg/mL), TR47, in (A) 9-mer (TR47 9-mer; NPNDKYEPF (SEQ ID NO:36)) or Ac-TR47 (Acylated TR47) at either 50 μM or 10 nM or (B) 50 μM of 16-mer-TR47, 8-mer-TR47, 6-mer-TR47, TR47 N−1, TR47 N−2, TR47 N−5, TR47AQ, TR47AD, TR47AA or TR48-54 for 1 hour, washed with DPBS, and incubated with LPS (1 μg/mL) for 3 hours at 37° C. in serum-free RPMI. Cells were washed with DPBS and incubated with ATP (5 mM) in the presence or absence of 10 μM YVAD (caspase 1 inhibitor; C1i) or 2.5 μM ZVAD (pan-caspase inhibitor; pCi) for 45 minutes at 37° C., prior to performing the caspase 1 activity assay following manufacturer's directions measuring luminescence (relative luminescent units, RLU). #P<0.001 (vs. LPS+ATP), **P<0.005 (vs. LPS+ATP), * (P<0.05 vs. LPS+ATP). (C) Diagram showing the PAR1 sequence, peptide sequences and relative (anti-inflammatory) activity. These include sequences of TR47 (SEQ ID NO:7), Ac-TR47 (SEQ ID NO:56), 16-mer-TR47 (SEQ ID NO:43), 9-mer-TR47 (SEQ ID NO:36), 8-mer-TR47 (SEQ ID NO:35), 6-mer-TR47 (SEQ ID NO:33), TR47 N−1 (SEQ ID NO:47), TR47 N−2 (SEQ ID NO:51), TR47 N−5 (SEQ ID NO:48), TR47AQ (SEQ ID NO:49), TR47AD (SEQ ID NO:52), TR47AA (SEQ ID NO:50) and TR48-54 (SEQ ID NO:53). […]

[1] = peptide 50 μM for 60 min before LPS (1 μg/mL) and ATP (5 mM), THP1 cells

| Compound | caspase 1 activity [1] | anti-inflammatory activities relative to that of TR47 | further results |
| --- | --- | --- | --- |
| CC(C)(O)c1coc(S(=O)(=O)NC(=O)Nc2c3c(cc4c2CCC4)CCC3)c1 [MCC950, reference compound] |  |  | caspase 1 activity (NLRP3 inhibitor MCC950 10 μM for 30 minutes after LPS, THP1-null cells treated with APC, TR47 or P3R): a significant reduction in caspase 1 activity across all treatments tested |
| APNDKYEPFWEDEEKNESGL [TR47ΔA] | similarly reduced caspase 1 activity | maintain substantial anti-inflammatory activities relative to that of TR47 |  |
| Ac-TR47: Acylated TR47 (N-terminus of TR47 acylated) (Ac-NPNDKYEPF; also: N-terminal acylation, acyl group not given here) | no reduction in caspase 1 activity was observed |  |  |
| FPFSALEGWTGATIT [P3R 51-65] |  |  | caspase-1 activity (PAR3 peptide 0 to 16 nM in the presence or absence of 1 nM P1(47-66)): only in the presence of 1 nM P1(47-66) was a significant reduction in caspase-1 activity seen; caspase 1 activity (peptide 50 μM for 60 min before LPS (1 μg/mL) and ATP (5 mM), THP1 cells, listed as P3(51-65)): alone is anti-inflammatory at relatively high concentrations; anti-inflammatory effect (caspase-1 activity) (peptide at 200 nM): neither the isolated PAR1-derived peptide nor the isolated PAR3-derived peptide had an any anti-inflammatory effect |
| GAPPNSFEEFPFS [P3Rm] | a significant reduction in caspase 1 activity was observed |  | synergistic anti-inflammatory activity (caspase 1 activity) (P3Rm (0 or 16 nM) combined with TR47 (1 nM), FIG. 6A): synergy observed; caspase 1 activity (peptide 2 μM for 1 hour before LPS and ATP, THP1 cells): this effect was lost |
| NDKYEPFWEDEEKNESGL [TR47 N−2] | a loss in inhibition of caspase 1 activity |  |  |
| NPNDKY [6-mer TR47] | lost its inhibitory activity |  |  |
| NPNDKYEP [8-mer TR47] | significantly reduced caspase 1 activity | maintain substantive anti-inflammatory activities relative to that of TR47 |  |
| NPNDKYEPF [9-mer] | reduced caspase 1 activity similar to the 20-mer TR47 | maintain substantive anti-inflammatory activities relative to that of TR47 | anti-inflammatory effect (caspase-1 activity) (peptide at 200 nM): neither the isolated PAR1-derived peptide nor the isolated PAR3-derived peptide had an any anti-inflammatory effect; anti-inflammatory effect (caspase-1 activity) (peptide at 500 nM): alone was anti-inflammatory |
| NPNDKYEPFWEDEEKN [16-mer TR47] | significantly reduced caspase 1 activity | maintain substantive anti-inflammatory activities relative to that of TR47 |  |
| P3R 54-59: fragment of PAR3-derived peptide P3R, residues 54-59 (SALEGW; UniProt O00254 54-59, looked up, fragment) | only partially reduced caspase 1 activity |  |  |
| P3R 59-65: fragment of PAR3-derived peptide P3R, residues 59-65 (WTGATIT; UniProt O00254 59-65, looked up, fragment) | only partially reduced caspase 1 activity |  |  |
| PNDKYEPFWEDEEKNESGL [TR47 N−1] | still reduced caspase 1 activity | maintain substantial anti-inflammatory activities relative to that of TR47 | synergistic anti-inflammatory activity (caspase 1 activity) (TR47(N−1) (0 or 4 nM) combined with 500 nM P3R, FIG. 6B): synergy observed |
| QPNDKYEPFWEDEEKNESGL [TR47ΔQ] | similarly reduced caspase 1 activity | maintain substantial anti-inflammatory activities relative to that of TR47 |  |
| SFLLRN [reference compound] | neither a scrambled TR47 nor the peptides, SFLLRN or TFLLRN which resemble the novel N-terminal amino acid sequence generated by thrombin's PAR1 cleavage at Arg41 had any effect on caspase 1 activity |  |  |
| TFLLRN (SFLLRN; UniProt P25116 42-47, looked up, fragment) [reference compound] | neither a scrambled TR47 nor the peptides, SFLLRN or TFLLRN which resemble the novel N-terminal amino acid sequence generated by thrombin's PAR1 cleavage at Arg41 had any effect on caspase 1 activity |  |  |
| TR48-54: truncated TR-peptide, removing one amino acid from the N-terminus and part of the C-terminus (FEEFPFS; UniProt O00254 48-54, looked up, fragment) | did not reduce caspase 1 activity |  |  |
| YEPFWEDEEKNESGL [TR47 N−5] | a reduction in caspase 1 activity was observed | maintain substantial anti-inflammatory activities relative to that of TR47 |  |
